Patent US4440757A, “Pharmaceutical composition comprising derivative of aminobenzoic acid for regulating prostaglandin” (priority 1978, dated 1984)
Like-named read-outs stand apart in the source and are kept apart here.

Legend:
[1] = Acute oral toxicity (Litchfield-Wilcoxon); details: in vivo, mouse, 7 days
Experimental: The acute oral toxicity of the present substances were examined by using groups of ICR-JCL mouse and orally administering each of the representatives of present substances forcibly as an aqueous solution in distilled water or as an aqueous suspension also in distilled water at predetermined dosages, respectively. After observing the toxicological symptoms, if any, for 6 days, and recording the mortality until 7th day of the administration, LD50 (acute oral) was calculated by the method of Litchfield-Wilcoxon, and autopsy was carried out on dead mice and live mice to obtain informations.

[2] = system: Ehrlich cancer; experiment: Cancer proliferation and PGE in the cancer cells (Ehrlich); format: in vivo, C57BL/6 mouse; details: 100 mg/kg i.p. every other day, 14th day; for Weight of cancer: control 1.30; for Content of PGE in the cancer: control 1.77
Experimental: Following the same method as in Example 12, the anti-cancer action against transplanted Ehrlich cancer in C57BL/6 mouse, and the amount of PGE in the cancer cells in proliferation in the living body of the mouse were examined in the cases where each one compound of the present invention, Specimens Nos. 1, 2, 3, 4, 5, 6, 8, 9, 10 and 11 was intraperitoneally administered every other day from the next day of the transplantation in total 6 times at a dosage of 100 mg/kg.
The results of determination of the weight of cancer extirpated from the sacrificed mouse on 14th day of the transplantation of the cancer cells, 1×10^6 in number per animal, and content of PGE of the extirpated cancer are shown in the following Table 13: […]

[3] = system: Salmonella typhimurium TA 100; experiment: Mutagenicity, reversion assay, TA 100; format: cell-based
Experimental: (§1) (ii) The strains TA 98 and TA 100 (both are histidine requiring) of Salmonella typhimurium were used in the reversion assay.
(§2) Into 2 ml of a soft agar culture medium (the medium itself contains 6 g of sodium chloride and 6 g of agar in 1000 ml of distilled water) to which one tenth by volume of an aqueous solution of 0.5 mM of biotin and 0.5 mM of histidine had been added, 0.1 ml of the bacterial suspension and 0.1 ml of an aqueous solution of the present substance were admixed and the mixture was layered on the minimum agar culture medium. After 2 days of incubation at 37° C., the number of revertant colonies was counted. Furylfuramide (AF-2) was used as the positive control.

[4] = system: dog's stomach; format: in vivo, Beagle dog
Experimental: Five grams of the present substance (each of Specimens Nos. 1, 2, 3, 4, 5, 6, 7, 8, 9, 10 and 11) and of aspirin were respectively administered to each Beagle of body weight of 9 to 12 kg as an aqueous suspension in distilled water of adjusted pH of 3, and after 90 min of the administration, the state of hemorrhage in the dog's stomach was examined.

[5] = system: Salmonella typhimurium TA 98; experiment: Mutagenicity, reversion assay, TA 98; format: cell-based
Experimental: as §1, §2

[6] = system: Bacillus subtilis M 45; experiment: Mutagenicity, rec-assay, strain M 45; format: cell-based; details: 10 μg/disk, negative control
Experimental: (§3) As the first stage, the present substances were tested by rec-assay (i), and as the second stage, they were tested by reversion assay (ii).
(§4) (i) A strain of Bacillus subtilis M 45, a defectant of recombination repair, and a wild strain of Bacillus subtilis H 17 keeping recombination repair activity were inoculated to make their own streaks not crossed at the start on a B-2 agar culture plate (made by dissolving 10 g of meat extract, 10 g of polypeptone, 5 g of sodium chloride and 15 g of agar in 1000 ml of distilled water at pH 7.0). Then, a paper disc of 8 mm in diameter, which absorbed 0.04 ml of an aqueous solution of the present substance in sterilized water was put on the surface of the agar plate so as to cover the starting point of the above-mentioned streaks of bacterial culture. The inoculated B-2 agar plate was kept at 37° C. for a night and the length of growth-inhibited region was measured.

[7] = system: Bacillus subtilis H 17; experiment: Mutagenicity, rec-assay, strain H 17; format: cell-based; details: 10 μg/disk, negative control
Experimental: as §3, §4

[8] = system: male Sprague-Dowley rats; experiment: Leakage of dye-staff after skin stimulation with histamine and PGE1; format: in vivo; details: challenge agents only, no present substance
Experimental: To the three groups of male Sprague-Dowley rats of the total six groups, the respective present substances (Specimens Nos. 4, 7 and 8) were forcibly administered by oral route at the rate of 1000 mg/kg, the other three groups being administered nothing at this time. After 60 min of the administration, a mixture of PGE1 (2.5×10^-11 mol/animal) and histamine (2×10^-8 mol/animal) was intracutaneously injected under light […] into the shaved skin of an abdominal part of four groups of the rats including three groups administered with the present substance.

[9] = system: male Sprague-Dowley rats; experiment: Foot-oedema induced by carrageenin and PGE1; format: in vivo; details: challenge agents only, no present substance; 60 min
Experimental: The three groups of male Sprague-Dowley rats of total six groups, the respective present substances, Specimens Nos. 4, 7 and 8 were administered forcibly by oral route at a rate of 1000 mg/kg, the other three groups of the same kind of rats being administered nothing at this time.
After 60 min of the administration, 0.1 ml of an aqueous solution of carrageenin (1 mg) and PGE1 (0.1 μg) was injected onto the hind paw of the four groups of the rats including the three groups administered with the present substance. To one group of remaining two groups not administered with the present substance, 0.1 ml of an aqueous solution containing only carrageenin at 1% was injected, and to the other one group not administered with the present substance, an aqueous solution containing only PGE1 was injected.
The volume of the thus swollen foot of the groups of the thus treated rats was measured by the water-displacement method, and the results are shown in Table 17 by the increment of the volume of foot as compared to the volume of foot before the treatment as percentage.

Structure (SMILES) | LD50 at 168 h [1] [mg/kg] | Weight of cancer [2] [g] | Content of PGE in the cancer [2] [ng/g] | Number of revertant colonies TA 100 ([3]; 5,000 μg/plate, control 149) [number per plate] | hemorrhage in the stomach ([4]; dog, in vivo) | Number of revertant colonies TA 98 ([5]; 5,000 μg/plate, control 13) [number per plate] | other results
O=C(O)c1cccc(NC2O[C@H](CO)[C@@H](O)[C@H](O)[C@@H]2O)c1 (stereo partly drawn) [Specimen No. 3, Sodium m-aminobenzoate-N--D-mannoside] | > 10000 | 0.74 | 4.23 | 90 | no hemorrhage in the stomach was found | 6 | 
NC[C@H]1O[C@H](O[C@H]2[C@H](O)[C@@H](O[C@H]3O[C@H](CO)[C@@H](O)[C@H](N)[C@H]3O)[C@H](N)C[C@@H]2N)[C@H](O)[C@@H](O)[C@@H]1O [Kanamycin] |  |  |  |  |  |  | Length of inhibition growth zone M 45 [6]: 5 mm; difference (M 45 minus H 17) [6]: 1 mm; Length of inhibition growth zone H 17 [7]: 4 mm
O=C(O)c1ccc(NC2OC[C@H](O)[C@H](O)[C@H]2O)cc1 (stereo partly drawn) [Specimen No. 10, Sodium p-aminobenzoate-N--L-arabinoside] | 10800 | 0.70 | 4.14 | 51 | no hemorrhage in the stomach was found | 3 | 
O=C(O)c1ccc(NC2O[C@H](CO)[C@H](O)[C@H](O)[C@H]2O)cc1 (stereo partly drawn) [Specimen No. 6, Sodium p-aminobenzoate-N--D-galactoside] | 14600 | 0.65 | 3.66 | 51 | no hemorrhage in the stomach was found | 7 | 
COC(=O)c1ccccc1NC1O[C@H](CO)[C@@H](O)[C@H](O)[C@@H]1O (stereo partly drawn) [Specimen No. 11, Methyl o-aminobenzoate-N--D-mannoside] | > 7500 | 0.69 | 4.20 | 95 | no hemorrhage in the stomach was found | 8 | 
O=C(O)c1ccc(NC2O[C@H](CO)[C@@H](O)[C@H](O)[C@H]2O)cc1 (stereo partly drawn) [Specimen No. 5, Sodium p-aminobenzoate-N--D-glucoside] | > 15000 | 0.70 | 3.20 | 104 | no hemorrhage in the stomach was found | 11 | 
NC(=O)C(=Cc1ccc([N+](=O)[O-])o1)c1ccco1 [Furylfuramide, reference compound] |  |  |  |  |  |  | Number of revertant colonies TA 100 ([3]; 0.1 μg/plate, positive control): 911 number per plate; Number of revertant colonies TA 98 ([5]; 0.1 μg/plate, positive control): 167 number per plate
O=C(O)c1ccc(NC2(CO)OC[C@@H](O)[C@@H](O)[C@@H]2O)cc1 (stereo partly drawn) [Specimen No. 9, Sodium p-aminobenzoate-N--D-fructoside] | > 10000 | 0.80 | 4.32 | 95 | no hemorrhage in the stomach was found | 5 | 
CC(=O)Oc1ccccc1C(=O)O [aspirin, reference compound] |  |  |  |  |  |  | hemorrhage in the stomach ([4]; 5 g, 90 min after administration): hemorrhage in the stomach was observed
NCCc1c[nH]cn1 [Histamine, histamine, reference compound] |  |  |  |  |  |  | Absorbance at 620 nm (dye leakage) [8]: 0.192
C[C@@H]1OC(Nc2ccccc2C(=O)O)[C@H](O)[C@H](O)[C@H]1O (stereo partly drawn) [Specimen No. 2, Sodium o-aminobenzoate-N--L-rhamnoside] | 12500 | 0.81 | 3.88 | 61 | no hemorrhage in the stomach was found | 9 | 
O=C(O)c1ccccc1NC1O[C@H](CO)[C@H](O)[C@H](O)[C@H]1O (stereo partly drawn) [Specimen No. 1, Sodium o-aminobenzoate-N--D-galactoside] | 6100 | 0.63 | 4.10 | 151 | no hemorrhage in the stomach was found | 6 | 
CCCCC[C@H](O)/C=C/[C@H]1[C@H](O)CC(=O)[C@@H]1CCCCCCC(=O)O [PGE1, reference compound] |  |  |  |  |  |  | Percentage increment of volume of foot [9]: 9.3%; Absorbance at 620 nm (dye leakage) [8]: 0.066
